# From ChEMBL document CHEMBL1201862, “PubChem BioAssay data set” (2004)
#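 48-hour exposure; five concentrations; linearly interpolated endpoints. GI50: concentration for 50% inhibition of growth.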 The source made the active and inactive calls. Rule as the data show it: active = GI50 up to about 1.1 µM and inactive = higher.
# What was measured:
# Assay in all cases: DTP human tumour cell line panel, 48 h
# T47D = test system: T47D
# HL-60 = test system: HL-60
# HCT-116 = test system: HCT-116
# SF-268 = test system: SF-268
# ACHN = test system: ACHN
# MDA-N = test system: MDA-N
# SW-620 = test system: SW-620
# RPMI-8226 = test system: RPMI-8226
# UACC-257 = test system: UACC-257
# BT-549 = test system: BT-549
# MDA-MB-231 = test system: MDA-MB-231
# M14 = test system: M14
# SR = test system: SR
# A549 = test system: A549
# SK-MEL-28 = test system: SK-MEL-28
# UO-31 = test system: UO-31
# OVCAR-4 = test system: OVCAR-4
# NCI-H23 = test system: NCI-H23
# PC-3 = test system: PC-3
# KM-20L2 = test system: KM-20L2
SMILES,GI50 (T47D),GI50 (HL-60),GI50 (HCT-116),GI50 (SF-268),GI50 (ACHN),GI50 (MDA-N),GI50 (SW-620),GI50 (RPMI-8226),GI50 (UACC-257),GI50 (BT-549),GI50 (MDA-MB-231),GI50 (M14),GI50 (SR),GI50 (A549),GI50 (SK-MEL-28),GI50 (UO-31),GI50 (OVCAR-4),GI50 (NCI-H23),GI50 (PC-3),GI50 (KM-20L2)
OC(Cc1ccccc1)(Cc1ccccc1)c1ccccc1,33.7 µM (inactive),22 µM (inactive),16.2 µM (inactive),14.9 µM (inactive),18.4 µM (inactive),15.2 µM (inactive),22.2 µM (inactive),29.3 µM (inactive),18.5 µM (inactive),18.7 µM (inactive),19 µM (inactive),17.7 µM (inactive),25.1 µM (inactive),19.5 µM (inactive),21.9 µM (inactive),17.5 µM (inactive),16.9 µM (inactive),18.8 µM (inactive),18.7 µM (inactive),
CCN(CC)c1ccc(/C=C/c2ccnc3ccccc23)cc1,> 100 µM (inactive),> 100 µM (inactive),> 100 µM (inactive),> 100 µM (inactive),> 100 µM (inactive),> 100 µM (inactive),> 100 µM (inactive),> 100 µM (inactive),> 100 µM (inactive),> 100 µM (inactive),> 100 µM (inactive),> 100 µM (inactive),> 100 µM (inactive),> 100 µM (inactive),> 100 µM (inactive),> 100 µM (inactive),> 100 µM (inactive),> 100 µM (inactive),> 100 µM (inactive),
O=S(=O)(O)c1ccc(Nc2ccnc3ccccc23)cc1,> 100 µM (inactive),> 100 µM (inactive),> 100 µM (inactive),> 100 µM (inactive),> 100 µM (inactive),> 100 µM (inactive),> 100 µM (inactive),> 100 µM (inactive),> 100 µM (inactive),> 100 µM (inactive),> 100 µM (inactive),> 100 µM (inactive),> 100 µM (inactive),> 100 µM (inactive),> 100 µM (inactive),> 100 µM (inactive),> 100 µM (inactive),> 100 µM (inactive),> 100 µM (inactive),
Oc1c(O)c(Cc2ccccc2)c(Cc2ccccc2)c(Cc2ccccc2)c1Cc1ccccc1,> 10 µM (inactive),> 10 µM (inactive),> 10 µM (inactive),> 10 µM (inactive),> 10 µM (inactive),> 10 µM (inactive),> 10 µM (inactive),> 10 µM (inactive),> 10 µM (inactive),> 10 µM (inactive),> 10 µM (inactive),> 10 µM (inactive),> 10 µM (inactive),> 10 µM (inactive),> 10 µM (inactive),> 10 µM (inactive),> 10 µM (inactive),> 10 µM (inactive),> 10 µM (inactive),
COc1ccc(/C=C2\CN(C)Cc3c2nc(N)nc3-c2ccc(OC)cc2)cc1,,28.7 µM (inactive),> 100 µM (inactive),> 100 µM (inactive),> 100 µM (inactive),,57.4 µM (inactive),24.6 µM (inactive),,,,69.3 µM (inactive),,48.4 µM (inactive),> 100 µM (inactive),> 100 µM (inactive),,> 100 µM (inactive),,82 µM (inactive)
CC1(c2nc3cc(Cl)c(Cl)cc3[nH]2)CCC(CO)C(C)(C)O1 (centres undefined),32.3 µM (inactive),15 µM (inactive),31.4 µM (inactive),34.8 µM (inactive),30.3 µM (inactive),29 µM (inactive),30.9 µM (inactive),16.9 µM (inactive),29.6 µM (inactive),17.1 µM (inactive),22.8 µM (inactive),26.2 µM (inactive),19.9 µM (inactive),33.6 µM (inactive),24.8 µM (inactive),15.1 µM (inactive),25.1 µM (inactive),25.6 µM (inactive),29 µM (inactive),
CSc1ccc(-c2cc(-c3nc4ccccc4[nH]3)no2)cc1,5.77 µM (inactive),21.6 µM (inactive),32.5 µM (inactive),32 µM (inactive),25.2 µM (inactive),26.9 µM (inactive),37 µM (inactive),24.4 µM (inactive),30.2 µM (inactive),19.6 µM (inactive),40.6 µM (inactive),20.4 µM (inactive),23.6 µM (inactive),23.6 µM (inactive),27.6 µM (inactive),13.1 µM (inactive),0.0562 µM (active),19.1 µM (inactive),32.6 µM (inactive),
Cc1ccc(NC(=O)CC(=O)n2nc(C)c(/N=N/c3cccc(C)c3)c2C)cc1,> 100 µM (inactive),38 µM (inactive),> 100 µM (inactive),69 µM (inactive),> 100 µM (inactive),> 100 µM (inactive),> 100 µM (inactive),> 100 µM (inactive),> 100 µM (inactive),> 100 µM (inactive),> 100 µM (inactive),> 100 µM (inactive),61.7 µM (inactive),> 100 µM (inactive),> 100 µM (inactive),> 100 µM (inactive),> 100 µM (inactive),> 100 µM (inactive),> 100 µM (inactive),
CN(CC(=O)O)S(=O)(=O)c1ccc(Cl)cc1,,> 100 µM (inactive),,> 100 µM (inactive),> 100 µM (inactive),,> 100 µM (inactive),> 100 µM (inactive),> 100 µM (inactive),,,> 100 µM (inactive),,> 100 µM (inactive),> 100 µM (inactive),> 100 µM (inactive),> 100 µM (inactive),> 100 µM (inactive),,> 100 µM (inactive)
CNC(=O)/C=C/C1=CN2C(=O)c3ccc(C)c(O)c3NC(OC)C2C1 (centres undefined),< 0.0181 µM (active),0.0298 µM (active),< 0.0148 µM (active),< 0.0154 µM (active),0.0142 µM (active),< 0.0127 µM (active),< 0.0164 µM (active),0.0234 µM (active),< 0.013 µM (active),< 0.01 µM (active),< 0.01 µM (active),< 0.0124 µM (active),< 0.0156 µM (active),< 0.0149 µM (active),0.0145 µM (active),< 0.0143 µM (active),< 0.0132 µM (active),< 0.0134 µM (active),< 0.016 µM (active),
COc1cccc(C2=NC(C(C)C)CO2)c1 (centres undefined),,> 100 µM (inactive),,> 100 µM (inactive),> 100 µM (inactive),,> 100 µM (inactive),> 100 µM (inactive),> 100 µM (inactive),,,> 100 µM (inactive),,> 100 µM (inactive),> 100 µM (inactive),85.7 µM (inactive),> 100 µM (inactive),> 100 µM (inactive),,> 100 µM (inactive)
N#Cc1cnc(-n2[nH]c3c(c2=O)CCCC3)[nH]c1=O,> 100 µM (inactive),34.8 µM (inactive),38 µM (inactive),46 µM (inactive),47.2 µM (inactive),> 100 µM (inactive),50 µM (inactive),88.3 µM (inactive),55 µM (inactive),73.5 µM (inactive),39.9 µM (inactive),38.1 µM (inactive),23.8 µM (inactive),38.5 µM (inactive),55.2 µM (inactive),38.5 µM (inactive),83.9 µM (inactive),54.3 µM (inactive),59.4 µM (inactive),
CC1(c2ccc(Cl)cc2)N=C(NCCO)c2ccccc21 (centres undefined),15.9 µM (inactive),3.23 µM (inactive),5.37 µM (inactive),42.9 µM (inactive),29.4 µM (inactive),10.7 µM (inactive),10.5 µM (inactive),2.74 µM (inactive),17.1 µM (inactive),42 µM (inactive),19.1 µM (inactive),9.84 µM (inactive),16.4 µM (inactive),23.7 µM (inactive),9.75 µM (inactive),17.8 µM (inactive),67.9 µM (inactive),13.8 µM (inactive),32.7 µM (inactive),
CCCCCC(=O)N[C@@H](c1ccccc1)C(O)C(=O)OC1C[C@@]2(O)C(OC(=O)c3ccccc3)C3[C@](C)(C(=O)[C@H](O)C(=C1C)C2(C)C)C(OC1OCC(O)C(O)C1O)C[C@H]1OC[C@@]31OC(C)=O (some centres undefined),1.76 µM (inactive),0.542 µM (active),0.516 µM (active),2.32 µM (inactive),> 89.1 µM (inactive),0.078 µM (active),16.1 µM (inactive),0.486 µM (active),> 100 µM (inactive),2.62 µM (inactive),67.6 µM (inactive),2.32 µM (inactive),2.41 µM (inactive),7.24 µM (inactive),2.7 µM (inactive),> 75.9 µM (inactive),> 100 µM (inactive),3.68 µM (inactive),1.29 µM (inactive),
NC(=O)N1N=C2c3ccccc3CC[C@@H]2C1c1ccccc1 (some centres undefined),,42.9 µM (inactive),> 100 µM (inactive),> 100 µM (inactive),> 100 µM (inactive),,> 100 µM (inactive),63.2 µM (inactive),> 100 µM (inactive),,,> 100 µM (inactive),,> 100 µM (inactive),> 100 µM (inactive),> 100 µM (inactive),,> 100 µM (inactive),,> 100 µM (inactive)
ClCC[N+]12CC[N+](CCCl)(CC1)C2,> 100 µM (inactive),> 100 µM (inactive),> 100 µM (inactive),> 100 µM (inactive),> 100 µM (inactive),> 100 µM (inactive),> 100 µM (inactive),> 100 µM (inactive),> 100 µM (inactive),> 100 µM (inactive),> 100 µM (inactive),> 100 µM (inactive),55 µM (inactive),> 100 µM (inactive),> 100 µM (inactive),> 100 µM (inactive),> 100 µM (inactive),> 100 µM (inactive),> 100 µM (inactive),
